Laboratory results as given in publication PMC4503722, “Novel Phenotypic Outcomes Identified for a Public Collection of Approved Drugs from a Publicly Accessible Panel of Assays” (PLoS ONE, 2015).

Each compound was assayed on RKO (assay: cells). Conditions: assay number 29; basal.
Type: cell-based

SMILES	Basal_Viability ATP RKO IC50/EC50 [µM]
CNS(=O)(=O)Cc1ccc2[nH]cc(CCN(C)C)c2c1 [NCGC00095838-04]	> 20
CCN(CCO)CCCC(C)Nc1ccnc2cc(Cl)ccc12.O=S(=O)(O)O (centres unmarked) [NCGC00159483-04]	> 20
O.O=C1[O][Bi][O]c2ccccc21 [NCGC00166299-03]	> 20
CCc1cccc2c3c([nH]c12)C(CC)(CC(=O)O)OCC3 (centres unmarked) [NCGC00015399-16]	> 20
CC(C)(C)CC(C)(C)c1cc(Cc2cc(C(C)(C)CC(C)(C)C)cc(-n3nc4ccccc4n3)c2O)c(O)c(-n2nc3ccccc3n2)c1 [NCGC00167544-02]	> 20

Same assay, conditions: assay number 29; basal; read-out: Basal_Viability ATP RKO summarized IC50

SMILES	IC50 [µM]
CC[n+]1c(-c2ccccc2)c2cc(N)ccc2c2ccc(N)cc21 [NCGC00091387-08]	3.35
NC(=O)N/N=C/c1ccc([N+](=O)[O-])o1 [NCGC00090686-11]	> 20
O=C(O)c1ccccc1S [NCGC00018107-05]	> 20

Same assay, conditions: basal

SMILES	IC50/EC50, Basal_Viability ATP RKO (assay number 29) [µM]
CCCCCCOc1ccccc1C(N)=O [NCGC00095049-04]	> 6.6667

What follows are compounds tested on Colo320 (assay: cells). Conditions: assay number 27; basal.
Type: cell-based

SMILES	Basal_Viability ATP Colo 320 IC50/EC50 [µM]
CNS(=O)(=O)Cc1ccc2[nH]cc(CCN(C)C)c2c1 [NCGC00095838-04]	> 20
CCN(CCO)CCCC(C)Nc1ccnc2cc(Cl)ccc12.O=S(=O)(O)O (centres unmarked) [NCGC00159483-04]	> 20
O.O=C1[O][Bi][O]c2ccccc21 [NCGC00166299-03]	> 20
CCc1cccc2c3c([nH]c12)C(CC)(CC(=O)O)OCC3 (centres unmarked) [NCGC00015399-16]	> 20
CC(C)(C)CC(C)(C)c1cc(Cc2cc(C(C)(C)CC(C)(C)C)cc(-n3nc4ccccc4n3)c2O)c(O)c(-n2nc3ccccc3n2)c1 [NCGC00167544-02]	> 20

Same assay, conditions: assay number 27; basal; read-out: Basal_Viability ATP Colo 320 summarized IC50

SMILES	IC50 [µM]
CC[n+]1c(-c2ccccc2)c2cc(N)ccc2c2ccc(N)cc21 [NCGC00091387-08]	> 20
NC(=O)N/N=C/c1ccc([N+](=O)[O-])o1 [NCGC00090686-11]	> 20
O=C(O)c1ccccc1S [NCGC00018107-05]	> 20

Same assay, conditions: basal

SMILES	IC50/EC50, Basal_Viability ATP Colo 320 (assay number 27) [µM]
CCCCCCOc1ccccc1C(N)=O [NCGC00095049-04]	> 20

Each compound was assayed on HCT116 (assay: cells). Conditions: assay number 25; basal.
Type: cell-based

SMILES	Basal_Viability ATP HCT116 IC50/EC50 [µM]
CNS(=O)(=O)Cc1ccc2[nH]cc(CCN(C)C)c2c1 [NCGC00095838-04]	> 20
CCN(CCO)CCCC(C)Nc1ccnc2cc(Cl)ccc12.O=S(=O)(O)O (centres unmarked) [NCGC00159483-04]	> 20
O.O=C1[O][Bi][O]c2ccccc21 [NCGC00166299-03]	> 20
CCc1cccc2c3c([nH]c12)C(CC)(CC(=O)O)OCC3 (centres unmarked) [NCGC00015399-16]	> 20
CC(C)(C)CC(C)(C)c1cc(Cc2cc(C(C)(C)CC(C)(C)C)cc(-n3nc4ccccc4n3)c2O)c(O)c(-n2nc3ccccc3n2)c1 [NCGC00167544-02]	> 20

Same assay, conditions: assay number 25; basal; read-out: Basal_Viability ATP HCT116 summarized IC50

SMILES	IC50 [µM]
CC[n+]1c(-c2ccccc2)c2cc(N)ccc2c2ccc(N)cc21 [NCGC00091387-08]	4.44
NC(=O)N/N=C/c1ccc([N+](=O)[O-])o1 [NCGC00090686-11]	> 20
O=C(O)c1ccccc1S [NCGC00018107-05]	> 20

Same assay, conditions: basal

SMILES	IC50/EC50, Basal_Viability ATP HCT116 (assay number 25) [µM]
CCCCCCOc1ccccc1C(N)=O [NCGC00095049-04]	> 6.6667

These compounds were tested on HeLa cells (assay: cells). Conditions: assay number 14; 2N; read-out: Hela CellCycMod PI 2N summarized IC50.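 On Hela CellCycMod PI 4N summarized IC50: value tracks stimulation of 4N DNA content.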
Type: cell-based

SMILES	IC50 [µM]
CC[n+]1c(-c2ccccc2)c2cc(N)ccc2c2ccc(N)cc21 [NCGC00091387-08]	> 10

Same assay, conditions: assay number 15; S phase; read-out: Hela CellCycMod PI S Phase summarized IC50

SMILES	IC50 [µM]
CC[n+]1c(-c2ccccc2)c2cc(N)ccc2c2ccc(N)cc21 [NCGC00091387-08]	> 10

Same assay, conditions: assay number 16; 4N; read-out: Hela CellCycMod PI 4N summarized IC50

SMILES	IC50 [µM]
CC[n+]1c(-c2ccccc2)c2cc(N)ccc2c2ccc(N)cc21 [NCGC00091387-08]	> 10

Same assay, conditions: assay number 17; MI; read-out: Hela CellCycMod PI MI summarized IC50

SMILES	IC50 [µM]
CC[n+]1c(-c2ccccc2)c2cc(N)ccc2c2ccc(N)cc21 [NCGC00091387-08]	> 10

Same assay, conditions: assay number 18; cell number; read-out: Hela CellCycMod PI Cell Number summarized IC50

SMILES	IC50 [µM]
CC[n+]1c(-c2ccccc2)c2cc(N)ccc2c2ccc(N)cc21 [NCGC00091387-08]	> 10

The compounds below were run on HT-29 (assay: cells). Conditions: assay number 28; basal.
Type: cell-based

SMILES	Basal_Viability ATP HT-29 IC50/EC50 [µM]
CNS(=O)(=O)Cc1ccc2[nH]cc(CCN(C)C)c2c1 [NCGC00095838-04]	> 20
CCN(CCO)CCCC(C)Nc1ccnc2cc(Cl)ccc12.O=S(=O)(O)O (centres unmarked) [NCGC00159483-04]	> 20
O.O=C1[O][Bi][O]c2ccccc21 [NCGC00166299-03]	> 20
CCc1cccc2c3c([nH]c12)C(CC)(CC(=O)O)OCC3 (centres unmarked) [NCGC00015399-16]	> 20
CC(C)(C)CC(C)(C)c1cc(Cc2cc(C(C)(C)CC(C)(C)C)cc(-n3nc4ccccc4n3)c2O)c(O)c(-n2nc3ccccc3n2)c1 [NCGC00167544-02]	> 20

Same assay, conditions: assay number 28; basal; read-out: Basal_Viability ATP HT-29 summarized IC50

SMILES	IC50 [µM]
CC[n+]1c(-c2ccccc2)c2cc(N)ccc2c2ccc(N)cc21 [NCGC00091387-08]	> 20
NC(=O)N/N=C/c1ccc([N+](=O)[O-])o1 [NCGC00090686-11]	> 20
O=C(O)c1ccccc1S [NCGC00018107-05]	> 20

Same assay, conditions: basal

SMILES	IC50/EC50, Basal_Viability ATP HT-29 (assay number 28) [µM]
CCCCCCOc1ccccc1C(N)=O [NCGC00095049-04]	> 20

These compounds were tested on DLD-1 (assay: cells). Conditions: assay number 23; basal.
Type: cell-based

SMILES	Basal_Viability ATP DLD-1 IC50/EC50 [µM]
CNS(=O)(=O)Cc1ccc2[nH]cc(CCN(C)C)c2c1 [NCGC00095838-04]	> 20
CCN(CCO)CCCC(C)Nc1ccnc2cc(Cl)ccc12.O=S(=O)(O)O (centres unmarked) [NCGC00159483-04]	> 20
O.O=C1[O][Bi][O]c2ccccc21 [NCGC00166299-03]	> 20
CCc1cccc2c3c([nH]c12)C(CC)(CC(=O)O)OCC3 (centres unmarked) [NCGC00015399-16]	> 20
CC(C)(C)CC(C)(C)c1cc(Cc2cc(C(C)(C)CC(C)(C)C)cc(-n3nc4ccccc4n3)c2O)c(O)c(-n2nc3ccccc3n2)c1 [NCGC00167544-02]	> 20

Same assay, conditions: assay number 23; basal; read-out: Basal_Viability ATP DLD-1 summarized IC50

SMILES	IC50 [µM]
CC[n+]1c(-c2ccccc2)c2cc(N)ccc2c2ccc(N)cc21 [NCGC00091387-08]	> 20
NC(=O)N/N=C/c1ccc([N+](=O)[O-])o1 [NCGC00090686-11]	> 20
O=C(O)c1ccccc1S [NCGC00018107-05]	> 20

Same assay, conditions: basal

SMILES	IC50/EC50, Basal_Viability ATP DLD-1 (assay number 23) [µM]
CCCCCCOc1ccccc1C(N)=O [NCGC00095049-04]	8.6657

What follows are compounds tested on SNU-C1 (assay: cells). Conditions: assay number 30; basal.
Type: cell-based

SMILES	Basal_Viability ATP SNU-C1 IC50/EC50 [µM]
CNS(=O)(=O)Cc1ccc2[nH]cc(CCN(C)C)c2c1 [NCGC00095838-04]	> 20
CCN(CCO)CCCC(C)Nc1ccnc2cc(Cl)ccc12.O=S(=O)(O)O (centres unmarked) [NCGC00159483-04]	> 20
O.O=C1[O][Bi][O]c2ccccc21 [NCGC00166299-03]	15.3838
CCc1cccc2c3c([nH]c12)C(CC)(CC(=O)O)OCC3 (centres unmarked) [NCGC00015399-16]	> 20
CC(C)(C)CC(C)(C)c1cc(Cc2cc(C(C)(C)CC(C)(C)C)cc(-n3nc4ccccc4n3)c2O)c(O)c(-n2nc3ccccc3n2)c1 [NCGC00167544-02]	> 20

Same assay, conditions: assay number 30; basal; read-out: Basal_Viability ATP SNU-C1 summarized IC50

SMILES	IC50 [µM]
CC[n+]1c(-c2ccccc2)c2cc(N)ccc2c2ccc(N)cc21 [NCGC00091387-08]	> 20
NC(=O)N/N=C/c1ccc([N+](=O)[O-])o1 [NCGC00090686-11]	> 20
O=C(O)c1ccccc1S [NCGC00018107-05]	> 20

Same assay, conditions: basal

SMILES	IC50/EC50, Basal_Viability ATP SNU-C1 (assay number 30) [µM]
CCCCCCOc1ccccc1C(N)=O [NCGC00095049-04]	9.3567

What follows are compounds tested on SW480 (assay: cells). Conditions: assay number 24; basal.
Type: cell-based

SMILES	Basal_Viability ATP SW480 IC50/EC50 [µM]
CNS(=O)(=O)Cc1ccc2[nH]cc(CCN(C)C)c2c1 [NCGC00095838-04]	> 6.6667
CCN(CCO)CCCC(C)Nc1ccnc2cc(Cl)ccc12.O=S(=O)(O)O (centres unmarked) [NCGC00159483-04]	> 20
O.O=C1[O][Bi][O]c2ccccc21 [NCGC00166299-03]	> 20
CCc1cccc2c3c([nH]c12)C(CC)(CC(=O)O)OCC3 (centres unmarked) [NCGC00015399-16]	> 20
CC(C)(C)CC(C)(C)c1cc(Cc2cc(C(C)(C)CC(C)(C)C)cc(-n3nc4ccccc4n3)c2O)c(O)c(-n2nc3ccccc3n2)c1 [NCGC00167544-02]	> 20

Same assay, conditions: assay number 24; basal; read-out: Basal_Viability ATP SW480 summarized IC50

SMILES	IC50 [µM]
CC[n+]1c(-c2ccccc2)c2cc(N)ccc2c2ccc(N)cc21 [NCGC00091387-08]	> 20
NC(=O)N/N=C/c1ccc([N+](=O)[O-])o1 [NCGC00090686-11]	> 20
O=C(O)c1ccccc1S [NCGC00018107-05]	> 20

Same assay, conditions: basal

SMILES	IC50/EC50, Basal_Viability ATP SW480 (assay number 24) [µM]
CCCCCCOc1ccccc1C(N)=O [NCGC00095049-04]	> 20
